Test: xn = mol fraction of the nth substance listed
Settings: 101 kPa, Liquid; for viscosity: Capillary tube (Ostwald / Ubbelohde) method

CN(C)C=O [dimethylformamide] + O
Settings | mass density [kg/m3] | viscosity [mPa·s]
283.15 K, x1 = 0.02 | 1000.31 | –
283.15 K, x1 = 0.04 | 1001.42 | –
283.15 K, x1 = 0.06 | 1002.8 | –
283.15 K, x1 = 0.08 | 1004.13 | –
283.15 K, x1 = 0.1 | 1005.32 | –
283.15 K, x1 = 0.2 | 1007.64 | –
283.15 K, x1 = 0.3 | 1004.4 | –
283.15 K, x1 = 0.398 | 997.83 | –
283.15 K, x1 = 0.498 | 990.56 | –
283.15 K, x1 = 0.599 | 983.02 | –
283.15 K, x1 = 0.697 | 976.07 | –
283.15 K, x1 = 0.798 | 969.84 | –
283.15 K, x1 = 1 | 958.96 | –
288.15 K, x1 = 0.02 | 999.23 | –
288.15 K, x1 = 0.04 | 999.91 | –
288.15 K, x1 = 0.06 | 1000.87 | –
288.15 K, x1 = 0.08 | 1001.82 | –
288.15 K, x1 = 0.1 | 1002.67 | –
288.15 K, x1 = 0.2 | 1003.86 | –
288.15 K, x1 = 0.3 | 1000.1 | –
288.15 K, x1 = 0.398 | 993.31 | –
288.15 K, x1 = 0.498 | 985.94 | –
288.15 K, x1 = 0.599 | 978.36 | –
288.15 K, x1 = 0.697 | 971.37 | –
288.15 K, x1 = 0.798 | 965.11 | –
288.15 K, x1 = 1 | 954.17 | –
293.15 K, x1 = 0.02 | 997.92 | 1.234
293.15 K, x1 = 0.04 | 998.2 | 1.442
293.15 K, x1 = 0.06 | 998.77 | 1.656
293.15 K, x1 = 0.08 | 999.37 | 1.847
293.15 K, x1 = 0.1 | 999.9 | 2.062
293.15 K, x1 = 0.2 | 1000.01 | 2.782
293.15 K, x1 = 0.3 | 995.76 | 2.954
293.15 K, x1 = 0.398 | 988.76 | 2.622
293.15 K, x1 = 0.498 | 981.3 | 2.162
293.15 K, x1 = 0.599 | 973.67 | 1.713
293.15 K, x1 = 0.697 | 966.65 | 1.377
293.15 K, x1 = 0.798 | 960.37 | 1.153
293.15 K, x1 = 1 | 949.39 | 0.864
298.15 K, x1 = 0.02 | 996.39 | –
298.15 K, x1 = 0.04 | 996.31 | –
298.15 K, x1 = 0.06 | 996.53 | –
298.15 K, x1 = 0.08 | 996.8 | –
298.15 K, x1 = 0.1 | 997.03 | –
298.15 K, x1 = 0.2 | 996.13 | –
298.15 K, x1 = 0.3 | 991.4 | –
298.15 K, x1 = 0.398 | 984.18 | –
298.15 K, x1 = 0.498 | 976.64 | –
298.15 K, x1 = 0.599 | 968.96 | –
298.15 K, x1 = 0.697 | 961.92 | –
298.15 K, x1 = 0.798 | 955.63 | –
298.15 K, x1 = 1 | 944.6 | –
303.15 K, x1 = 0.02 | 994.67 | 0.97
303.15 K, x1 = 0.04 | 994.25 | 1.114
303.15 K, x1 = 0.06 | 994.14 | 1.269
303.15 K, x1 = 0.08 | 994.11 | 1.407
303.15 K, x1 = 0.1 | 994.05 | 1.55
303.15 K, x1 = 0.2 | 992.19 | 2.051
303.15 K, x1 = 0.3 | 986.99 | 2.179
303.15 K, x1 = 0.398 | 979.57 | 1.979
303.15 K, x1 = 0.498 | 971.95 | 1.675
303.15 K, x1 = 0.599 | 964.24 | 1.382
303.15 K, x1 = 0.697 | 957.18 | 1.149
303.15 K, x1 = 0.798 | 950.87 | 0.985
303.15 K, x1 = 1 | 939.83 | 0.766
308.15 K, x1 = 0.02 | 992.74 | –
308.15 K, x1 = 0.04 | 992.03 | –
308.15 K, x1 = 0.06 | 991.61 | –
308.15 K, x1 = 0.08 | 991.29 | –
308.15 K, x1 = 0.1 | 990.98 | –
308.15 K, x1 = 0.2 | 988.2 | –
308.15 K, x1 = 0.3 | 982.55 | –
308.15 K, x1 = 0.398 | 974.94 | –
308.15 K, x1 = 0.498 | 967.24 | –
308.15 K, x1 = 0.599 | 959.49 | –
308.15 K, x1 = 0.697 | 952.42 | –
308.15 K, x1 = 0.798 | 946.1 | –
308.15 K, x1 = 1 | 935.05 | –
313.15 K, x1 = 0.02 | 990.67 | 0.783
313.15 K, x1 = 0.04 | 989.66 | 0.891
313.15 K, x1 = 0.06 | 988.95 | 1.003
313.15 K, x1 = 0.08 | 988.37 | 1.103
313.15 K, x1 = 0.1 | 987.8 | 1.208
313.15 K, x1 = 0.2 | 984.15 | 1.564
313.15 K, x1 = 0.3 | 978.07 | 1.66
313.15 K, x1 = 0.398 | 970.26 | 1.538
313.15 K, x1 = 0.498 | 962.5 | 1.337
313.15 K, x1 = 0.599 | 954.73 | 1.14
313.15 K, x1 = 0.697 | 947.64 | 0.971
313.15 K, x1 = 0.798 | 941.33 | 0.847
313.15 K, x1 = 1 | 930.27 | 0.684
318.15 K, x1 = 0.02 | 988.43 | –
318.15 K, x1 = 0.04 | 987.14 | –
318.15 K, x1 = 0.06 | 986.17 | –
318.15 K, x1 = 0.08 | 985.33 | –
318.15 K, x1 = 0.1 | 984.53 | –
318.15 K, x1 = 0.2 | 980.05 | –
318.15 K, x1 = 0.3 | 973.55 | –
318.15 K, x1 = 0.398 | 965.56 | –
318.15 K, x1 = 0.498 | 957.73 | –
318.15 K, x1 = 0.599 | 949.93 | –
318.15 K, x1 = 0.697 | 942.85 | –
318.15 K, x1 = 0.798 | 936.53 | –
318.15 K, x1 = 1 | 925.49 | –
323.15 K, x1 = 0.02 | 986 | 0.648
323.15 K, x1 = 0.04 | 984.49 | 0.729
323.15 K, x1 = 0.06 | 983.26 | 0.812
323.15 K, x1 = 0.08 | 982.19 | 0.892
323.15 K, x1 = 0.1 | 981.17 | 0.965
323.15 K, x1 = 0.2 | 975.89 | 1.228
323.15 K, x1 = 0.3 | 968.99 | 1.3
323.15 K, x1 = 0.398 | 960.81 | 1.228
323.15 K, x1 = 0.498 | 952.92 | 1.087
323.15 K, x1 = 0.599 | 945.11 | 0.961
323.15 K, x1 = 0.697 | 938.03 | 0.831
323.15 K, x1 = 0.798 | 931.73 | 0.74
323.15 K, x1 = 1 | 920.71 | 0.617
328.15 K, x1 = 0.02 | 983.51 | –
328.15 K, x1 = 0.04 | 981.71 | –
328.15 K, x1 = 0.06 | 980.24 | –
328.15 K, x1 = 0.08 | 978.94 | –
328.15 K, x1 = 0.1 | 977.71 | –
328.15 K, x1 = 0.2 | 971.68 | –
328.15 K, x1 = 0.3 | 964.38 | –
328.15 K, x1 = 0.398 | 956.04 | –
328.15 K, x1 = 0.498 | 948.09 | –
328.15 K, x1 = 0.599 | 940.27 | –
328.15 K, x1 = 0.697 | 933.2 | –
328.15 K, x1 = 0.798 | 926.91 | –
328.15 K, x1 = 1 | 915.92 | –
333.15 K, x1 = 0.02 | 980.84 | 0.548
333.15 K, x1 = 0.04 | 978.81 | 0.613
333.15 K, x1 = 0.06 | 977.1 | 0.675
333.15 K, x1 = 0.08 | 975.59 | 0.736
333.15 K, x1 = 0.1 | 974.16 | 0.792
333.15 K, x1 = 0.2 | 967.4 | 0.992
333.15 K, x1 = 0.3 | 959.73 | 1.046
333.15 K, x1 = 0.398 | 951.22 | 1.001
333.15 K, x1 = 0.498 | 943.22 | 0.905
333.15 K, x1 = 0.599 | 935.4 | 0.81
333.15 K, x1 = 0.697 | 928.34 | 0.722
333.15 K, x1 = 0.798 | 922.08 | 0.654
333.15 K, x1 = 1 | 911.13 | 0.559
338.15 K, x1 = 0.02 | 978.04 | –
338.15 K, x1 = 0.04 | 975.81 | –
338.15 K, x1 = 0.06 | 973.86 | –
338.15 K, x1 = 0.08 | 972.14 | –
338.15 K, x1 = 0.1 | 970.51 | –
338.15 K, x1 = 0.2 | 963.07 | –
338.15 K, x1 = 0.3 | 955.03 | –
338.15 K, x1 = 0.398 | 946.36 | –
338.15 K, x1 = 0.498 | 938.32 | –
338.15 K, x1 = 0.599 | 930.49 | –
338.15 K, x1 = 0.697 | 923.46 | –
338.15 K, x1 = 0.798 | 917.22 | –
338.15 K, x1 = 1 | 906.32 | –
343.15 K, x1 = 0.02 | 975.12 | 0.474
343.15 K, x1 = 0.04 | 972.66 | 0.526
343.15 K, x1 = 0.06 | 970.5 | 0.575
343.15 K, x1 = 0.08 | 968.59 | 0.624
343.15 K, x1 = 0.1 | 966.78 | 0.666
343.15 K, x1 = 0.2 | 958.67 | 0.821
343.15 K, x1 = 0.3 | 950.29 | 0.866
343.15 K, x1 = 0.398 | 941.46 | 0.837
343.15 K, x1 = 0.498 | 933.38 | 0.764
343.15 K, x1 = 0.599 | 925.56 | 0.701
343.15 K, x1 = 0.697 | 918.55 | 0.636
343.15 K, x1 = 0.798 | 912.34 | 0.583
343.15 K, x1 = 1 | 901.51 | 0.51
348.15 K, x1 = 0.02 | 972.14 | –
348.15 K, x1 = 0.04 | 969.42 | –
348.15 K, x1 = 0.06 | 967.1 | –
348.15 K, x1 = 0.08 | 964.94 | –
348.15 K, x1 = 0.1 | 962.96 | –
348.15 K, x1 = 0.2 | 954.21 | –
348.15 K, x1 = 0.3 | 945.49 | –
348.15 K, x1 = 0.398 | 936.52 | –
348.15 K, x1 = 0.498 | 928.4 | –
348.15 K, x1 = 0.599 | 920.59 | –
348.15 K, x1 = 0.697 | 913.61 | –
348.15 K, x1 = 0.798 | 907.45 | –
348.15 K, x1 = 1 | 896.69 | –
353.15 K, x1 = 0.02 | 968.96 | 0.417
353.15 K, x1 = 0.04 | 966.06 | 0.459
353.15 K, x1 = 0.06 | 963.53 | 0.499
353.15 K, x1 = 0.08 | 961.2 | 0.539
353.15 K, x1 = 0.1 | 959.05 | 0.572
353.15 K, x1 = 0.2 | 949.69 | 0.694
353.15 K, x1 = 0.3 | 940.64 | 0.727
353.15 K, x1 = 0.398 | 931.54 | 0.707
353.15 K, x1 = 0.498 | 923.39 | 0.659
353.15 K, x1 = 0.599 | 915.59 | 0.614
353.15 K, x1 = 0.697 | 908.64 | 0.563
353.15 K, x1 = 0.798 | 902.52 | 0.525
353.15 K, x1 = 1 | 891.86 | 0.47

From the NIST ThermoML archive (doi:10.1021/je700671t)
